Tests used:
Test in all cases: relative viability (nuclei count vs DMSO), 5 days (fraction); higher = more cells survive
AZD1208 + Navitoclax = compound: N[C@@H]1CCCN(c2c(/C=C3\SC(=O)NC3=O)cccc2-c2ccccc2)C1 [AZD1208] + CC1(C)CCC(c2ccc(Cl)cc2)=C(CN2CCN(c3ccc(C(=O)NS(=O)(=O)c4ccc(N[C@H](CCN5CCOCC5)CSc5ccccc5)c(S(=O)(=O)C(F)(F)F)c4)cc3)CC2)C1 [Navitoclax] (partner 0.5 µM)
Procedure, shortened: (§1)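 Relative viability was taken as the ratio of nuclei in treated wells to nuclei in vehicle wells. Lung cancer cell lines in 1536-well plates received compounds by pin tool one day after seeding, either one drug alone or a fixed anchor-drug dose plus five library-drug doses (not always all listed) in √10 steps. Nuclei were counted on 4× images after 5 days of treatment, and values are medians of duplicate plates.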

AZD1208 + Palbociclib = compound: N[C@@H]1CCCN(c2c(/C=C3\SC(=O)NC3=O)cccc2-c2ccccc2)C1 [AZD1208] + CC(=O)c1c(C)c2cnc(Nc3ccc(N4CCNCC4)cn3)nc2n(C2CCCC2)c1=O [Palbociclib] (partner 0.5 µM)
Procedure, shortened: as §1

XMD14-99 + Tozasertib = compound: CN1CCN(CC1)C2=CC(=C(C=C2)NC3=NC(=C(S3)C(=O)C4=C(C=CC=C4Cl)Cl)N)OC [XMD14-99] + Cc1cc(Nc2cc(N3CCN(C)CC3)nc(Sc3ccc(NC(=O)C4CC4)cc3)n2)n[nH]1 [Tozasertib] (partner 0.1 µM)
Procedure, shortened: as §1

AZD1208 + Linsitinib = compound: N[C@@H]1CCCN(c2c(/C=C3\SC(=O)NC3=O)cccc2-c2ccccc2)C1 [AZD1208] + C[C@]1(O)C[C@@H](c2nc(-c3ccc4ccc(-c5ccccc5)nc4c3)c3c(N)nccn32)C1 [Linsitinib] (partner 1 µM)
Procedure, shortened: as §1

Cell Line | relative viability (AZD1208 + Navitoclax; first compound 0.08 µM) | relative viability (AZD1208 + Navitoclax; first compound 0.253 µM) | relative viability (AZD1208 + Navitoclax; first compound 0.8 µM) | relative viability (AZD1208 + Navitoclax; first compound 2.53 µM) | relative viability (AZD1208 + Navitoclax; first compound 8 µM) | relative viability (AZD1208 + Palbociclib; first compound 0.08 µM) | relative viability (AZD1208 + Palbociclib; first compound 0.253 µM) | relative viability (AZD1208 + Palbociclib; first compound 0.8 µM) | relative viability (AZD1208 + Palbociclib; first compound 2.53 µM) | relative viability (AZD1208 + Palbociclib; first compound 8 µM) | relative viability (XMD14-99 + Tozasertib; first compound 0.08 µM) | relative viability (XMD14-99 + Tozasertib; first compound 0.8 µM) | relative viability (XMD14-99 + Tozasertib; first compound 2.53 µM) | relative viability (XMD14-99 + Tozasertib; first compound 8 µM) | relative viability (AZD1208 + Linsitinib; first compound 0.08 µM) | relative viability (AZD1208 + Linsitinib; first compound 0.253 µM) | relative viability (AZD1208 + Linsitinib; first compound 0.8 µM) | relative viability (AZD1208 + Linsitinib; first compound 2.53 µM) | relative viability (AZD1208 + Linsitinib; first compound 8 µM)
NCI-H2009 | 1.2 | 1.14 | 1.12 | 1.21 | 1.15 | 0.196 | 0.202 | 0.221 | 0.208 | 0.181 | 0.683 | 0.617 | 0.541 | 0.399 | 1.22 | 1.13 | 1.18 | 1.14 | 1.12
SW 1573 | 0.896 | 0.948 | 0.765 | 0.995 | 0.717 | 0.264 | 0.268 | 0.265 | 0.346 | 0.259 | 0.168 | 0.286 | 0.198 | 0.21 | 0.725 | 0.637 | 0.745 | 0.656 | 0.534
NCI-H2023 | 1.02 | 0.99 | 0.977 | 0.934 | 0.959 | 0.34 | 0.39 | 0.333 | 0.373 | 0.332 | 0.396 | 0.332 | 0.302 | 0.185 | 0.651 | 0.56 | 0.576 | 0.633 | 0.568
LOU-NH91 | 0.689 | 0.709 | 0.648 | 0.638 | 0.577 | 0.473 | 0.56 | 0.549 | 0.525 | 0.531 | 0.709 | 0.631 | 0.645 | 0.533 | 0.953 | 0.934 | 0.855 | 0.949 | 0.822
NCI-H3122 | 1.04 | 1 | 0.995 | 1.05 | 1.08 | 0.206 | 0.155 | 0.149 | 0.223 | 0.164 | 0.407 | 0.314 | 0.295 | 0.179 | 1.09 | 1.03 | 1.03 | 1.02 | 1.08
LCLC-97TM1 | 0.369 | 0.271 |  | 0.446 | 0.21 | 0.197 | 0.203 | 0.199 | 0.216 | 0.19 | 0.401 | 0.238 | 0.202 | 0.211 | 0.156 | 0.206 |  | 0.133 | 0.132
NCI-H647 | 0.934 | 0.974 | 1.14 | 1.01 | 0.801 | 0.322 | 0.486 | 0.324 | 0.397 | 0.304 | 0.203 | 0.375 | 0.218 | 0.114 | 1.22 | 1.1 | 1.06 | 1.03 | 1.06
NCI-H838 | 1.07 | 1.18 | 1.1 | 1.12 | 1.01 | 0.21 | 0.231 | 0.209 | 0.187 | 0.201 | 0.265 | 0.24 | 0.269 | 0.194 | 0.992 | 1.09 | 0.815 | 1.02 | 0.817
H3255 | 0.511 | 0.546 | 0.455 | 0.462 | 0.472 | 0.299 | 0.307 | 0.333 | 0.314 | 0.326 | 0.721 | 0.606 | 0.563 | 0.454 | 1.02 | 1.05 | 0.866 | 0.973 | 0.891
SK-MES-1 | 1.08 | 1.41 | 1.08 | 1.03 | 0.926 | 0.299 | 0.348 | 0.316 | 0.307 | 0.311 | 0.925 | 0.861 | 0.761 | 0.5 | 1.01 | 1.02 | 1.06 | 1.04 | 0.969
NCI-H1437 | 1.13 | 1.11 | 1.02 | 1.16 | 1.07 | 0.288 | 0.353 | 0.302 | 0.263 | 0.291 | 0.426 | 0.336 | 0.321 | 0.219 | 1.03 | 1.09 | 0.887 | 0.832 | 0.866
LU99A | 0.805 | 0.855 | 0.864 | 0.712 | 0.514 | 0.379 | 0.414 | 0.398 | 0.339 | 0.319 | 0.294 | 0.236 | 0.212 | 0.196 | 0.504 | 0.5 | 0.51 | 0.397 | 0.432
HCC-827 | 1.05 | 1.11 | 0.984 | 1.07 | 0.983 | 0.493 | 0.411 | 0.405 | 0.481 | 0.509 | 0.393 | 0.394 | 0.342 | 0.404 | 0.965 | 1.03 | 1.01 | 1.01 | 1.02
LK-2 | 0.77 | 0.523 | 0.494 | 0.433 | 0.347 | 0.58 | 0.486 |  | 0.294 | 0.266 | 0.171 | 0.185 | 0.171 | 0.192 | 0.43 | 0.523 | 0.302 | 0.263 | 0.268

From the supplement of paper PMC10307832
